Results on 21 compounds are retold here after patent US9957274B2, “Indane inhibitors of EED and methods of their use” (AbbVie Inc., priority 2016, dated 2018).

One test concerns Pfeiffer cells. Put plainly: CTG cell viability assay (CellTiter-Glo). The test is classed as cell-based. Conditions: Homo sapiens, 240 h. The method, then:
1,000 cells were plated into each well of 96-well Corning CellBing cell culture plates and incubated overnight at 37° C. in a humidified CO2 incubator. […] The cell culture plates were then incubated for 10 more days. CTG cell viability assay was performed on the cell culture samples by using CellTiter-Glo® Luminescent Cell Viability Assay Kit (Promega).
(In general: ATP-based viability assays read luminescence as a measure of living cells.)

Test [1] relates to H3K27me3 in OCILY19 cells. Description: H3K27me3 AlphaLISA assay in OCILY19 cells. The format is cell-based. Conditions: Homo sapiens, OCI-LY19, 144 h, 6 days with compound, read-out: OCILY-19 IC50. The method, then:
5,000 cells were plated into each well of 96-well Corning CellBing cell culture plates and incubated overnight at 37° C. in a humidified CO2 incubator. […] The cell culture plates were then incubated for 6 more days. H3K27me3 AlphaLISA assay was performed on the cell culture samples by using AlphaLISAR® H3K27me3 Cellular Detection Kit (PerkinElmer) and 96-well white half-area plates (PerkinElmer).
In general terms: In Alpha technology, singlet oxygen from a donor bead excites a nearby acceptor bead.

The next test has as its target EED (Homo sapiens, UniProt O75530). Description: EED TR-FRET Binding Assay (modified LanthaScreen competition assay). The gist of the method: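 Competition binding in a modified LanthaScreen format, in 20 mM Tris-HCl pH 7.5, 200 mM NaCl, 0.01% Tween-20, 10 uM DTT and 0.05% BSA. Reactions ran 1 hour at 25° C before TR-FRET detection.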
Background: In TR-FRET formats the signal depends on donor and acceptor labels being close together.

The mark [2] stands for this setting: Pfeiffer, read-out: Cell Proliferation IC50 (uM).
Setting [3] is: Pfeiffer cells, 10 days with compound, CellTiter-Glo, read-out: Cell Proliferation IC50.

Where two headings read alike, the source gives them in different places.

Sequence of EED (O75530 whole entry): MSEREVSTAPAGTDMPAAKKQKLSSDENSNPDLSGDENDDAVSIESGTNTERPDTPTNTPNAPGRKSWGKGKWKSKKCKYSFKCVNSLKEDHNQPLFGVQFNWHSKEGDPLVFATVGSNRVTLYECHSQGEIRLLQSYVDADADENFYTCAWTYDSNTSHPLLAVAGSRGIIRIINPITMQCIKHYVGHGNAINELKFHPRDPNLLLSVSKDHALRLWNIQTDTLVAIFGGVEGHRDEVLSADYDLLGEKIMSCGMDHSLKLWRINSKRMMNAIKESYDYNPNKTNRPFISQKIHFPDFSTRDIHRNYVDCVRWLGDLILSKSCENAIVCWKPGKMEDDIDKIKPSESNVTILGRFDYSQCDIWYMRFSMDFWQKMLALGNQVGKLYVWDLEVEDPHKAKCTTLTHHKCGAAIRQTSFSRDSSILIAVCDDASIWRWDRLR

Turning to `CN(C)[C@H]1CN(C2CCc3ccccc32)C[C@@H]1c1cn(C)c2ccccc12` (stereo partly drawn) [Example 88, (3R,4S)-1-(2,3-dihydro-1H-inden-1-yl)-N,N-dimethyl-4-(1-methyl-1H-indol-3-yl)pyrrolidin-3-amine], the IC50 in the test with Pfeiffer cells (setting [2]) was determined as 3.55 µM; in test [1] it was 2440 nM; on EED, 26.2 nM.
In the case of `CN(C)[C@H]1CN([C@H]2C[C@H](F)c3cccc(F)c32)C[C@@H]1c1ccc(S(C)(=O)=O)cc1` (mixture of isomers) [Example 32, rac-(3R,4S)-1-[(1S,3S)-3,7-difluoro-2,3-dihydro-1H-inden-1-yl]-4-[4-(methanesulfonyl)phenyl]-N,N-dimethylpyrrolidin-3-amine], the IC50 was 2.81 µM in the test on Pfeiffer cells (setting [3]), 2110 nM in test [1] and 4.54 nM at EED.
Taken in the same sequence, the figures for `CN(C)[C@H]1CN(C2CCc3cccc(F)c32)C[C@@H]1C1CCN(c2cnc(C(N)=O)cn2)CC1` (mixture of isomers) [Example 163, rac-5-{4-[(3S,4R)-4-(dimethylamino)-1-(7-fluoro-2,3-dihydro-1H-inden-1-yl)pyrrolidin-3-yl]piperidin-1-yl}pyrazine-2-carboxamide] were 0.271 µM, 583 nM and 0.638 nM.
Taken in the same sequence, the figures for `CN1CCN(C(=O)c2cccc3c([C@H]4CN(C5CCc6cccc(F)c65)C[C@@H]4N(C)C)cn(C)c23)CC1=O` (mixture of isomers) [Example 125, rac-4-{3-[(3S,4R)-4-(dimethylamino)-1-(7-fluoro-2,3-dihydro-1H-inden-1-yl)pyrrolidin-3-yl]-1-methyl-1H-indole-7-carbonyl}-1-methylpiperazin-2-one] were 0.268 µM, 203 nM and 1.07 nM.
Turning to `CN(C)[C@H]1CN([C@H]2CCc3cccc(F)c32)C[C@@H]1c1cn(C)c2ccccc12` [Example 77, (3R,4S)-1-[(1S)-7-fluoro-2,3-dihydro-1H-inden-1-yl]-N,N-dimethyl-4-(1-methyl-1H-indol-3-yl)pyrrolidin-3-amine], the IC50 came out at 1.07 µM in the test with Pfeiffer cells (setting [2]), 655 nM in test [1] and 1.03 nM at EED (read-out: TR-FRET Binding).
In the case of `CN(C)[C@H]1CN(C2CCc3cccc(F)c32)C[C@@H]1c1ccc(S(N)(=O)=O)cc1` (mixture of isomers) [Example 8, rac-4-[(3S,4R)-4-(dimethylamino)-1-(7-fluoro-2,3-dihydro-1H-inden-1-yl)pyrrolidin-3-yl]benzene-1-sulfonamide], the results for the IC50 (in the test with Pfeiffer cells (setting [3]); in test [1]; on EED) were 1.32 µM, 637 nM and 10.7 nM, respectively.
Consider `CN(CCO)C(=O)c1cccc2c([C@H]3CN(C4CCc5cccc(F)c54)C[C@@H]3N(C)C)cn(C)c12` (mixture of isomers) [Example 98, rac-3-[(3S,4R)-4-(dimethylamino)-1-(7-fluoro-2,3-dihydro-1H-inden-1-yl)pyrrolidin-3-yl]-N-(2-hydroxyethyl)-N,1-dimethyl-1H-indole-7-carboxamide], for which the IC50 amounted to 0.126 µM with Pfeiffer cells (setting [3]) and 1.37 nM at EED.
`CN(C)[C@@H]1CN(C2CCc3cccc(F)c32)C[C@H]1c1ccc(N2CCN(C(=O)C3COC3)CC2)nc1` (mixture of isomers) [Example 151, rac-(4-{5-[(3R,4S)-4-(dimethylamino)-1-(7-fluoro-2,3-dihydro-1H-inden-1-yl)pyrrolidin-3-yl]pyridin-2-yl}piperazin-1-yl)(oxetan-3-yl)methanone]: the values for the IC50 in the test on Pfeiffer cells (setting [3]) and at EED were 0.559 µM and 2.24 nM, respectively.
Regarding `CN(C)[C@H]1CN(C2CCc3cccc(F)c32)C[C@@H]1c1cn(C)c2cc(C(=O)N3C[C@H](O)[C@@H](O)C3)ccc12` (mixture of isomers) [Example 114, rac-[(3S,4S)-3,4-dihydroxypyrrolidin-1-yl]{3-[(3S,4R)-4-(dimethylamino)-1-(7-fluoro-2,3-dihydro-1H-inden-1-yl)pyrrolidin-3-yl]-1-methyl-1H-indol-6-yl}methanone], the IC50 in the test with Pfeiffer cells (setting [3]) worked out at 3.13 µM; on EED, 5.58 nM.
Regarding `CN(C)[C@H]1CN(C2CCc3cccc(F)c32)C[C@@H]1c1cn(C)c2c(C(=O)NC3CC(O)C3)cccc12` (mixture of isomers) [Example 108, rac-3-[(3S,4R)-4-(dimethylamino)-1-(7-fluoro-2,3-dihydro-1H-inden-1-yl)pyrrolidin-3-yl]-N-(3-hydroxycyclobutyl)-1-methyl-1H-indole-7-carboxamide], the results for the IC50 in the test on Pfeiffer cells (setting [3]) and at EED were 0.152 µM and 1.5 nM, respectively.
Regarding `CN(C)[C@H]1CN(C2CCc3cccc(F)c32)C[C@@H]1c1cn(C)c2c(C(=O)NC3CCS(=O)(=O)C3)cccc12` (mixture of isomers) [Example 115, rac-3-[(3S,4R)-4-(dimethylamino)-1-(7-fluoro-2,3-dihydro-1H-inden-1-yl)pyrrolidin-3-yl]-N-(1,1-dioxo-1lambda~6~-thiolan-3-yl)-1-methyl-1H-indole-7-carboxamide], the values for the IC50 in the test with Pfeiffer cells (setting [3]) and at EED were 0.224 µM and 1.73 nM, respectively.
Turning to `CNC(=O)c1cccc2c([C@H]3CN(C4CCc5cccc(F)c54)C[C@@H]3N(C)C)cn(C)c12` (mixture of isomers) [Example 99, rac-3-[(3S,4R)-4-(dimethylamino)-1-(7-fluoro-2,3-dihydro-1H-inden-1-yl)pyrrolidin-3-yl]-N,1-dimethyl-1H-indole-7-carboxamide], the figures for the IC50 in the test on Pfeiffer cells (setting [3]) and at EED were 0.303 µM and 1.91 nM, respectively.
`Cc1noc(-c2ccc([C@H]3CN(C4CCc5cccc(F)c54)C[C@@H]3N(C)C)cc2)n1` (mixture of isomers) [Example 67, rac-(3R,4S)-1-(7-fluoro-2,3-dihydro-1H-inden-1-yl)-N,N-dimethyl-4-[4-(3-methyl-1,2,4-oxadiazol-5-yl)phenyl]pyrrolidin-3-amine]: the values for the IC50 in the test on Pfeiffer cells (setting [3]) and at EED were 1.63 µM and 3.06 nM, respectively.
As for `CN(C)C1CN(C2CCc3cccc(F)c32)CC1c1cn(C)c2cc(C(=O)N3CCC(O)C3)ccc12` (racemic) [Example 111, rac-{3-[(3S,4R)-4-(dimethylamino)-1-(7-fluoro-2,3-dihydro-1H-inden-1-yl)pyrrolidin-3-yl]-1-methyl-1H-indol-6-yl}[(35)-3-hydroxypyrrolidin-1-yl]methanone], the values for the IC50 in the test on Pfeiffer cells (setting [3]) and at EED were 0.171 µM and 2.59 nM, respectively.
For the compound `CN(C)[C@@H]1CN(C2CCc3cccc(F)c32)C[C@H]1c1ccc(-c2cnn(CC(=O)N3CC(F)C3)c2)nc1` (mixture of isomers) [Example 153, rac-2-(4-{5-[(3R,4S)-4-(dimethylamino)-1-(7-fluoro-2,3-dihydro-1H-inden-1-yl)pyrrolidin-3-yl]pyridin-2-yl}-1H-pyrazol-1-yl)-1-(3-fluoroazetidin-1-yl)ethan-1-one], the IC50 with Pfeiffer cells (setting [3]) was found to be 0.419 µM; on EED it was 2.01 nM.
As to `CN(C)C(=O)N1CCN(C(=O)c2cccc3c([C@H]4CN(C5CCc6cccc(F)c65)C[C@@H]4N(C)C)cn(C)c23)CC1` (mixture of isomers) [Example 127, rac-4-{3-[(3S,4R)-4-(dimethylamino)-1-(7-fluoro-2,3-dihydro-1H-inden-1-yl)pyrrolidin-3-yl]-1-methyl-1H-indole-7-carbonyl}-N,N-dimethylpiperazine-1-carboxamide], the results for the IC50 in the test with Pfeiffer cells (setting [3]) and on EED were 0.335 µM and 1.75 nM, respectively.
As for `CN(C)[C@H]1CN(C2CCc3cccc(F)c32)C[C@@H]1c1cn(C)c2ccccc12` (stereo partly drawn) [Example 76, (3R,4S)-1-(7-fluoro-2,3-dihydro-1H-inden-1-yl)-N,N-dimethyl-4-(1-methyl-1H-indol-3-yl)pyrrolidin-3-amine], the IC50 in the test with Pfeiffer cells (setting [3]) was 1.9 µM; in test [1], 1340 nM.
For `CN(C)[C@H]1CN(C2CCc3cccc(F)c32)C[C@@H]1c1cn(C)c2cc(C(=O)N3CCN(S(C)(=O)=O)CC3)ccc12` (mixture of isomers) [Example 122, rac-{3-[(3S,4R)-4-(dimethylamino)-1-(7-fluoro-2,3-dihydro-1H-inden-1-yl)pyrrolidin-3-yl]-1-methyl-1H-indol-6-yl}[4-(methanesulfonyl)piperazin-1-yl]methanone], the figures for the IC50 in the test on Pfeiffer cells (setting [3]) and at EED were 0.556 µM and 2.88 nM, respectively.
As to `CC(=O)N1CCN(c2ccc([C@H]3CN([C@@H]4CCc5cccc(F)c54)C[C@@H]3N(C)C)cc2)CC1` [Example 46, 1-[4-(4-{(3S,4R)-4-(dimethylamino)-1-[(1R)-7-fluoro-2,3-dihydro-1H-inden-1-yl]pyrrolidin-3-yl}phenyl)piperazin-1-yl]ethan-1-one], the IC50 with Pfeiffer cells (setting [2]) was determined as 1.01 µM; on EED it was 3.36 nM.
As for `CN(C)C(=O)c1cccc2c([C@H]3CN(C4CCc5cccc(F)c54)C[C@@H]3N(C)C)cn(C)c12` (mixture of isomers) [Example 101, rac-3-[(3S,4R)-4-(dimethylamino)-1-(7-fluoro-2,3-dihydro-1H-inden-1-yl)pyrrolidin-3-yl]-N,N,1-trimethyl-1H-indole-7-carboxamide], the IC50 in test [1] is 368 nM; on EED it was 1.74 nM.
Turning to `CN(C)[C@H]1CN(C2C[C@H](F)c3cccc(F)c32)C[C@@H]1c1ccc(S(C)(=O)=O)cc1` (mixture of isomers) [Example 30, rac-(3R,4S)-1-[(3S)-3,7-difluoro-2,3-dihydro-1H-inden-1-yl]-4-[4-(methanesulfonyl)phenyl]-N,N-dimethylpyrrolidin-3-amine], the IC50 was found to be 3.1 µM with Pfeiffer cells (setting [3]) and 11.4 nM on EED.
